According to patent publication US20230089966A1, “METHOD FOR DIFFERENTIATION OF BRAIN MURAL CELLS FROM HUMAN PLURIPOTENT STEM CELLS” (WISCONSIN ALUMNI RESEARCH FOUNDATION, priority 2021, published 2023):

Assays:
[1] = molecular target: T1, Notch intracellular domain-RBPJ assembly (Homo sapiens, UniProt Q06330); test: Loss-of-function experiment, RT-qPCR of mural cell gene expression; assay type: cell-based; settings: 10 μM CB-103 in culture medium; 6 days after transduction of neural crest cells
T1 construct: corresponding to amino acids 1,662-2,321 of NP_00426.2; initiator Met (start codon supplied by the forward primer) (N); expressed in transfected cells; host or cells: H9 hPSC-derived p75+ neural crest cells transduced with N3ICD-GFP (pWPI-N3ICD) lentivirus; RBPJ is endogenous
T1 sequence (Q06330 whole entry, the tested form may be a part): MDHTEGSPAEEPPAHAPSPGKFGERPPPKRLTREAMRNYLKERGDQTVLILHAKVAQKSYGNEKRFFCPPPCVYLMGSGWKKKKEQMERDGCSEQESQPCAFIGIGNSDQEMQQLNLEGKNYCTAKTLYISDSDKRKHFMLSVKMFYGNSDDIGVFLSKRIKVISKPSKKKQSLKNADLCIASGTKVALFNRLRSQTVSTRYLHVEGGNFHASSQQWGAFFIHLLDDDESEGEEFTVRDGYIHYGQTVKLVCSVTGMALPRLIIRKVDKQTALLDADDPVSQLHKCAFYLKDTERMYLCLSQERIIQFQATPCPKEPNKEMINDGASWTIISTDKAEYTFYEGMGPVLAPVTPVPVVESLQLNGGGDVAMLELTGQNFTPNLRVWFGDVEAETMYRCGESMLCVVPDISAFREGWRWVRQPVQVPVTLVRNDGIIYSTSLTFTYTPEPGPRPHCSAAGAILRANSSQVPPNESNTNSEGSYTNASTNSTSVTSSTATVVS
Experimental: When neural crest cells reached ˜40-50% confluence (˜2-3 days post-MACS), lentiviral transduction was performed by replacing medium in each well E6-CSFD medium containing 30-50 μL N3ICD-GFP, N1ICD-GFP, or TBX2-GFP lentivirus per mL, or 5-8 μL GFP (control) lentivirus per mL, which achieved transduction efficiencies of 50-80%. E6-CSFD medium was replaced every other day for 6 days. In some experiments, culture medium was supplemented with 10 μM CB-103 (MedChemExpress, Monmouth Junction, N.J.). The resulting cultures were either used directly for analysis or sorted to isolate GFP^+ and GFP^− cells as described below.
RNA extraction was performed using the RNeasy Plus Micro Kit (Qiagen). Cells were lysed with 350 μL Buffer RLT supplemented with 1% β-mercaptoethanol (Sigma) and transferred to gDNA Eliminator spin columns. 350 μL 70% ethanol was added to each lysate, and lysates were loaded onto RNeasy MinElute spin columns. Columns were washed with Buffer RW1, Buffer RPE, and 80% ethanol according to manufacturer protocols. RNA was eluted with RNase-free water and concentration quantified using a NanoDrop 2000 spectrophotometer (Thermo Scientific, Waltham, Mass.). 250-1000 ng of RNA was reverse-transcribed for 1 h at 37° C. using the OmniScript RT Kit (Qiagen) and 1 μM Oligo(dT)12-18 primers (Life Technologies). […]

[2] = tested on: N3ICD-GFP-transduced culture; test: Calcium imaging after KCl application; assay type: cell-based, human; settings: 40 mM KCl, 6 days after transduction
Experimental: Calcium imaging was performed 6 days after transduction of a neural crest cultures with N3ICD-GFP lentivirus as described above. FLIPR Calcium 6 dye (Molecular Devices, San Jose, Calif.) was prepared according to manufacturer instructions. 500 μL of prepared dye was added to the existing 500 μL of culture medium and cells incubated at 37° C., 5% CO2 for 2 h. The plate was transferred to a microscope environmental chamber at 37° C., 5% CO2 and equilibrated for 30 min. Images were acquired every 5 s for 300 s using an Eclipse Ti2-E microscope with a 4× objective. At t=50 s, a 1:114 dilution of saturated KCl solution (4.56 M, for a final concentration of 40 mM) was added to the well.

[3] = tested on: GFP+ cells isolated via FACS from a N3ICD-GFP-transduced culture; test: Contraction assay (change in cell area); assay type: cell-based, human; settings: 40 mM KCl, 15 min after addition; GFP+ cells 2 days after FACS; water control 0% change
Experimental: The contraction assay was performed 2 days after isolation of GFP^+ cells via FACS from a N3ICD-GFP-transduced culture as described above. The plate was transferred to a microscope environmental chamber at 37° C., 5% CO2 and equilibrated for 30 min. At t=0 min, a 1:114 dilution of saturated potassium chloride solution, or an equivalent volume of water, was added to the culture medium and the plate briefly rocked to mix. Phase contrast images were acquired immediately upon addition of potassium chloride or water and 15 min thereafter using an Eclipse Ti2-E microscope with a 20× objective. The Freehand Selection Tool in ImageJ was used to trace the outlines of 16 cells per 20× field at times 0 and 15 min, and the Measure function used to obtain A0 and A15, the cell areas at times 0 and 15 min, respectively. For each cell, the percent change in area was computed as (A15−A0)/A0×100%.

KATP channels = molecular target: T2, KATP channels (Homo sapiens, UniProt O60706); test: KATP channel function by calcium imaging after KCl-induced depolarization; assay type: cell-based; settings: 20 μM pinacidil pretreatment, 40 mM KCl, 30 s after addition
T2 construct: endogenous in cells; host or cells: hPSC-derived neural crest cultures 6 days after transduction with GFP or N3ICD-GFP lentivirus
T2 sequence (O60706 whole entry): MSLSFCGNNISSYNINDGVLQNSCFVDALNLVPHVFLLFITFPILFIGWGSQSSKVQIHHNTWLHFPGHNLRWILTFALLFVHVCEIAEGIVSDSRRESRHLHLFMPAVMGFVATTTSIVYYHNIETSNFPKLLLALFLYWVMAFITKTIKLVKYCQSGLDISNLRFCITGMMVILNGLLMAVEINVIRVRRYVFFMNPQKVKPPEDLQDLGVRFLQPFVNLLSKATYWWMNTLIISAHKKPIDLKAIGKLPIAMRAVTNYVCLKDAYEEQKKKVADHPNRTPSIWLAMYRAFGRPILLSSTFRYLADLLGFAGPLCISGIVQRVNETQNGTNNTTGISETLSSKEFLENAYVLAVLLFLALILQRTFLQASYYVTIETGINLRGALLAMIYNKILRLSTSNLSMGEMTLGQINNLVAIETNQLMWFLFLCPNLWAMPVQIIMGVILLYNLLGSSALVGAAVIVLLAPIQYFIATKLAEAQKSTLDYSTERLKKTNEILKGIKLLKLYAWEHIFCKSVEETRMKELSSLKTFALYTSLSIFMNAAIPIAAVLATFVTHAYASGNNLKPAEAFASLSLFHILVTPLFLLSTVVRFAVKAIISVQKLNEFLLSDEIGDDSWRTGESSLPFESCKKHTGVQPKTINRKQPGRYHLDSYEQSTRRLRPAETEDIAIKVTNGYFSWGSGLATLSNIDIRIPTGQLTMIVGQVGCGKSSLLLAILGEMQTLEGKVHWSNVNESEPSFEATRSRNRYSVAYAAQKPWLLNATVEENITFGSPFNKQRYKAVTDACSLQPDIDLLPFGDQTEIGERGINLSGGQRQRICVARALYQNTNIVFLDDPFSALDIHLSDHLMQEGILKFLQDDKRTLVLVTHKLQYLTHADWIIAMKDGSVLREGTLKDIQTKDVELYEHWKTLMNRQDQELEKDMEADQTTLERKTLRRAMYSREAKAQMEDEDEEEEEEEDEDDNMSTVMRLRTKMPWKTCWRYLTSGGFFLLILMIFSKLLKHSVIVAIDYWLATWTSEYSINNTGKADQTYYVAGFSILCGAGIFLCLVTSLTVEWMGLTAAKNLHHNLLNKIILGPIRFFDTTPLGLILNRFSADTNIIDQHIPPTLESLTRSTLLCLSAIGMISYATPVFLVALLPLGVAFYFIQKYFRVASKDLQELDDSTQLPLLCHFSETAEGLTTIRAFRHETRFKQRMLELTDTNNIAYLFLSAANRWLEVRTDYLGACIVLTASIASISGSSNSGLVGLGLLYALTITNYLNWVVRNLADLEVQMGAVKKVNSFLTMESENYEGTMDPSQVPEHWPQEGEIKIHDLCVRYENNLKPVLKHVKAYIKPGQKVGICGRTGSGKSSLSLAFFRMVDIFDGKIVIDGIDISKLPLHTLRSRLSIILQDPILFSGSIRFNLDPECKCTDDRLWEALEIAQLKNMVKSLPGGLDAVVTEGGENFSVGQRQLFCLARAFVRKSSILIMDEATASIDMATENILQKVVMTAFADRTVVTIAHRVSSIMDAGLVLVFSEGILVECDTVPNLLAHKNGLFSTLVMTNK
T2 sequence (Q15842 whole entry partner): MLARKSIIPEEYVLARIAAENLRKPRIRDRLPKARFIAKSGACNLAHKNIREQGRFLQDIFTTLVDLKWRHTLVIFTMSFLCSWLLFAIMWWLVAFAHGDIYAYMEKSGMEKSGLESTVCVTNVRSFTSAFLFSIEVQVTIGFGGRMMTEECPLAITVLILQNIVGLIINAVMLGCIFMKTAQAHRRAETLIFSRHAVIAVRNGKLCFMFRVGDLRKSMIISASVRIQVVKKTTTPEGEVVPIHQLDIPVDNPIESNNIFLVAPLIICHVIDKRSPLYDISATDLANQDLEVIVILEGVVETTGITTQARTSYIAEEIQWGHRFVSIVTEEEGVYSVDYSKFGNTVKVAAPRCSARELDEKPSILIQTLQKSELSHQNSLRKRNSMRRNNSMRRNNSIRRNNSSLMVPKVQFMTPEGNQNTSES
Experimental: To assess function of KATP channels, cells 6 days after transduction with GFP or N3ICD-GFP lentiviruses were labeled with FLIPR Calcium 6 dye as above, and 20 μM pinacidil (Santa Cruz Biotechnology, Dallas, Tex.) or DMSO added 1.5 h after addition of dye. After an additional 30 min incubation, the plate was transferred to the microscope environmental chamber. Images were acquired every 5 s for 60 s and 40 mM KCl added at t=20 s. Mean fluorescence intensity was quantified as above.

For CC(C)(C)c1ccc(Oc2ccc(N)cn2)cc1 [CB-103], which “Notch-dependence of N3ICD-GFP-mediated transcriptional changes” value [1] is on record?
Its value is “confirmed that N3ICD-GFP-mediated transcriptional changes occurred via a canonical Notch transactivation mechanism”.

Which “Calcium response of cells to KCl application” value [2] does the source give for [Cl-].[K+] [KCl, potassium chloride] here?
Its value is “led to depolarization and calcium influx”.

What about the “average reduction in area of cells” value [3] of the same molecule?
The value was “approximately 7%”.

Which “intracellular calcium after KCl-induced depolarization versus DMSO-treated cells” value (KATP channels; GFP-transduced cultures) does the source give for CC(N/C(=N\C#N)Nc1ccncc1)C(C)(C)C (centres unmarked) [pinacidil] here?
Its value is “such a difference was not observed”.

What about the “intracellular calcium after KCl-induced depolarization versus DMSO-treated cells” value (KATP channels; N3ICD-GFP-transduced cultures) of the same molecule?
Its value is “reduced intracellular calcium”.
